Assays:
[1] = biological target: T1, human secretory type PLA2 of this invention (IIE type) (Homo sapiens, UniProt Q9NZK7); assay: Inhibition of secretory PLA2 activity, release of 14C-oleic acid from 14C-POPC; assay type: biochemical; conditions: 14C-POPC substrate, 40° C., 60 min, various concentrations of Indoxam; FIG. 4
T1 construct: made in house
T1 sequence (Q9NZK7 20-142): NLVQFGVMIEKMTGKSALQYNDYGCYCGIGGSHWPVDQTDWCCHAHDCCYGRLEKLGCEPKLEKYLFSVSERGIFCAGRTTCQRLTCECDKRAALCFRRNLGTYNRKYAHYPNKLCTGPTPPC
Method: (§1) Inhibitory activity against this novel type of human secretory type PLA2 was determined with Indoxam that is a 1-oxamoylindolidine derivative. It has already been reported that Indoxam inhibits the enzymatic activities of IIA type and IB type secretory type PLA2 (Yokota et al., Biochim. Biophys. Acta (1999) 1438, 213-222). The PLA2 activities were determined by the measurement of the quantity of released ^14C-oleic acid from ^14C-labeled 1-palmitoyl-2-oleoyl-phosphatidylcholine (POPC), according to the Draheim et al.'s method (J. Med. Chem., (1996) 39, 5159-5175). In the solution composed of 50 mM Tris-HCl (pH 8.0), 200 mM NaCl, 2 mM CaCl2, and 1 mg/ml bovine serum albumin, the substrates composed of 1 mM POPC (the mixture of about 100,000 cpm ^14C-POPC and unlabeled POPC) and 3 mM deoxycholic acid were incubated with each secretory PLA2 in the presence of various concentrations of Indoxam at 40° C. for 60 min. Then, the quantity of released ^4C-oleic acid was measured. Purified materials were used in the case with human IB type (2 ng), IIA type (10 ng) and X type (4 ng). Human V type, IID type and the secretory type PLA2 of this invention (IIE type) were prepared from the culture supernatant of CHO cells that stably express them.
(§2) The quantity of released ^14C-oleic acid from ^14C-POPC by each human secretory type PLA2 in the absence of Indoxam was regarded as 100% and the quantity of released ^14C-oleic acid in the presence of each concentration of Indoxam was shown as %.

[2] = biological target: T2, human IIA type secretory PLA2 (Homo sapiens, UniProt P14555); assay: as above; assay type: biochemical; conditions: 14C-POPC substrate, 40° C., 60 min, various concentrations of Indoxam; FIG. 4
T2 sequence (P14555 21-144): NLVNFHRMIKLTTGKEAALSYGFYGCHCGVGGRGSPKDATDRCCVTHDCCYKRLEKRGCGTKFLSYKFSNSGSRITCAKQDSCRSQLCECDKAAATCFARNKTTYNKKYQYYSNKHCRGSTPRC
Method: as §1, §2

[3] = biological target: T3, human IID type secretory PLA2 (Homo sapiens, UniProt Q9UNK4); assay: as above; assay type: biochemical; conditions: 14C-POPC substrate, 40° C., 60 min, various concentrations of Indoxam; FIG. 4
T3 construct: made in house
T3 sequence (Q9UNK4 21-145): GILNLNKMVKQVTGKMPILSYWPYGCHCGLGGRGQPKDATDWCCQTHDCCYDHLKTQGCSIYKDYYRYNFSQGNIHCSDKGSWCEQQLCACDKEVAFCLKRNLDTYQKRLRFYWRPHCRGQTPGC
Method: as §1, §2

[4] = biological target: T4, IIA type secretory type PLA2 (Homo sapiens, UniProt P14555); conditions: already reported, Yokota et al., Biochim. Biophys. Acta (1999) 1438, 213-222; cited from earlier work
T4 sequence (P14555 21-144): T2 sequence (P14555 21-144)

[5] = biological target: IB type secretory type PLA2 (Homo sapiens, UniProt P04054); conditions: already reported, Yokota et al., Biochim. Biophys. Acta (1999) 1438, 213-222; cited from earlier work
IB type secretory type PLA2, sequence (P04054 23-148): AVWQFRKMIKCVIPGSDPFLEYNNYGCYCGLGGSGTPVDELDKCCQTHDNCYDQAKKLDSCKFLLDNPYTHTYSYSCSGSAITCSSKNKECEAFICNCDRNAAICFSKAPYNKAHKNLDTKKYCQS

CCc1c(C(=O)C(N)=O)c2c(OCC(=O)O)cccn2c1Cc1ccccc1-c1ccccc1 [Indoxam]
inhibition of enzymatic activity of human PLA2 of this invention (IIE type) [1]: strongly inhibits | inhibition of enzymatic activity of human IIA type PLA2 [2]: strongly inhibits | inhibition of enzymatic activity of human IID type PLA2 [3]: strongly inhibits | inhibition of enzymatic activity of IIA type secretory type PLA2 [4]: inhibits | inhibition of enzymatic activity of IB type secretory type PLA2 [5]: inhibits

— patent US6872557B1, “Gene encoding novel human secretory phospholipase A2” (Shionogi & Co., Ltd., priority 1999, dated 2005)
